# Measurements reported in patent US10508088B2, “Methods using HDAC11 inhibitors” (FORMA Therapeutics, Inc., priority 2016, dated 2019).
# Molecular target: Full length human recombinant HDAC11 (Homo sapiens (Human), UniProt Q96DB2)
# Assay: Enzymatic HDAC11 assay, electrophoretic mobility shift
# Assay type: biochemical
# Settings: substrate FAM-RHKK(tri-fluor-Ac)-NH2, read-out: HDAC11 IC50 Range
# Experimental: The enzymatic HDAC11 assay was performed using electrophoretic mobility shift assay. Full length human recombinant HDAC11 protein was expressed in baculoviral system and purified by affinity chromatography. The enzymatic reactions were assembled in 384 well plates in a total volume of 25 μL in a reaction buffer composing: 100 mM HEPES, pH 7.5, 25 mM KCl, 0.1% bovine serum albumin, 0.01% Triton X-100, 1% DMSO (from compounds) 2 μM of the fluorescently labeled peptide substrate and enzyme. The enzyme was added at a final concentration of 10 nM. The peptide substrate FAM-RHKK(tri-fluor-Ac)-NH2 was used. The compounds were tested at 12 concentrations spaced by 3× dilution intervals. Negative control samples (0%-inhibition in the absence of inhibitor) and positive control samples (100%-inhibition) were assembled in replicates of four in each assay plate. The reactions were incubated at 25° C. and quenched by the addition of 45 μL of termination buffer (100 mM HEPES, pH 7.5, 0.01% Triton X-100, 0.05% SDS).
# The terminated assay plates were analyzed on LabChip® 3000 microfluidic electrophoresis instrument (Perkin Elmer/Caliper Life Sciences). The fluorescence intensity of the electrophoretically separated de-acetylated product and substrate peptide was measured. Activity in each sample was determined as the product to sum ratio (PSR):P/(S+P), where P is the peak height of the product peptide and S is the peak height of the substrate peptide. Percent inhibition (Pinh) is determined using the following equation: Pinh=(PSR0%−PSRinh)/(PSR0%−PSR100%)*100,
# where PSRinh is the product sum ratio in the presence of inhibitor, PSR0% is the average product sum ration in the absence of inhibitor and PSR100% is the average product sum ratio in 100%-inhibition control samples. The IC50 values of inhibitors were determined by fitting the percent inhibition curves with 4 parameter dose-response model using XLfit 4 software.
# Sequence of Full length human recombinant HDAC11 (Q96DB2 whole entry): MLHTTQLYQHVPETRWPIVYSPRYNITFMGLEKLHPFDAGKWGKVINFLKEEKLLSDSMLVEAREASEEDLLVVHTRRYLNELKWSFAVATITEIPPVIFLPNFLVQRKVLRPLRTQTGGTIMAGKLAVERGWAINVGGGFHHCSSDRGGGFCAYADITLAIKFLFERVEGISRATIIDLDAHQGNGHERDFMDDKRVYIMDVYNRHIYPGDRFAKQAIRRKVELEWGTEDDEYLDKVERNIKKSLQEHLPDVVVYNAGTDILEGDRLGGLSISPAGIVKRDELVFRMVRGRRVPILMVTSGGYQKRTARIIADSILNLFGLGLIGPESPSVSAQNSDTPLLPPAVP
row,IC50 [nM],SMILES
1,> 1000,"O=C(NO)c1cccc2c1CC1(CCN(Cc3ccccc3)C1=O)C2 (centres unmarked) [II-14, 1′-benzyl-N-hydroxy-2′-oxo-1,3-dihydrospiro[indene-2,3′-pyrrolidine]-4-carboxamide]"
2,500 to 1000,"Cc1cccc(CN2CCC3(Cc4cccc(C(=O)NO)c4C3)C2=O)c1 (centres unmarked) [II-17, N-hydroxy-1′-(3-methylbenzyl)-2′-oxo-1,3-dihydrospiro[indene-2,3′-pyrrolidine]-4-carboxamide]"
3,> 1000,"COc1cccc(CN2CCC3(Cc4cccc(C(=O)NO)c4C3)C2=O)c1 (centres unmarked) [II-20, N-hydroxy-1′-(3-methoxybenzyl)-2′-oxo-1,3-dihydrospiro[indene-2,3′-pyrrolidine]-4-carboxamide]"
4,< 500,"O=C(NO)c1cccc2c1CC1(CCN(Cc3cccc(Cl)c3Cl)C1=O)C2 (centres unmarked) [II-22, 1′-(2,3-dichlorobenzyl)-N-hydroxy-2′-oxo-1,3-dihydrospiro[indene-2,3′-pyrrolidine]-4-carboxamide]"
5,> 1000,"Cc1ccccc1CN1CCC2(Cc3cccc(C(=O)NO)c3C2)C1=O (centres unmarked) [II-23, N-hydroxy-1′-(2-methylbenzyl)-2′-oxo-1,3-dihydrospiro[indene-2,3′-pyrrolidine]-4-carboxamide]"
6,> 1000,"O=C(NO)c1cccc2c1CC1(CCN(Cc3ccccc3Cl)C1=O)C2 (centres unmarked) [II-25, 1′-(2-chlorobenzyl)-N-hydroxy-2′-oxo-1,3-dihydrospiro[indene-2,3′-pyrrolidine]-4-carboxamide]"
7,> 1000,"O=C(NO)c1cccc2c1CC1(CCN(Cc3cccc(F)c3)C1=O)C2 (centres unmarked) [II-26, 1′-(3-fluorobenzyl)-N-hydroxy-2′-oxo-1,3-dihydrospiro[indene-2,3′-pyrrolidine]-4-carboxamide]"
8,500 to 1000,"O=C(NO)c1cccc2c1CC1(CCN(Cc3ccccc3C(F)(F)F)C1=O)C2 (centres unmarked) [II-29, N-hydroxy-2′-oxo-1′-(2-(trifluoromethyl)benzyl)-1,3-dihydrospiro[indene-2,3′-pyrrolidine]-4-carboxamide]"
9,< 500,"O=C(NO)c1cccc2c1CC1(CCN(Cc3cccc(Cl)c3)C1=O)C2 (centres unmarked) [II-30, 1′-(3-chlorobenzyl)-N-hydroxy-2′-oxo-1,3-dihydrospiro[indene-2,3′-pyrrolidine]-4-carboxamide]"
10,500 to 1000,"O=C(NO)c1cccc2c1CC1(CCN(Cc3ccccc3OC(F)(F)F)C1=O)C2 (centres unmarked) [II-32, N-hydroxy-2′-oxo-1′-(2-(trifluoromethoxy)benzyl)-1,3-dihydrospiro[indene-2,3′-pyrrolidine]-4-carboxamide]"
11,< 500,"O=C(NO)c1cccc2c1CC1(CCN(Cc3cccc(Br)c3)C1=O)C2 (centres unmarked) [II-33, 1′-(3-bromobenzyl)-N-hydroxy-2′-oxo-1,3-dihydrospiro[indene-2,3′-pyrrolidine]-4-carboxamide]"
12,> 1000,"COc1ccccc1CN1CCC2(Cc3cccc(C(=O)NO)c3C2)C1=O (centres unmarked) [II-36, N-hydroxy-1′-(2-methoxybenzyl)-2′-oxo-1,3-dihydrospiro[indene-2,3′-pyrrolidine]-4-carboxamide]"

# Second part, the molecule before the results:
row,SMILES,IC50 [nM]
1,"O=C(NO)c1cccc2c1CC1(CCN(Cc3ccc(Cl)cc3)C1=O)C2 (centres unmarked) [II-1, 1′-(4-chlorobenzyl)-N-hydroxy-2′-oxo-1,3-dihydrospiro[indene-2,3′-pyrrolidine]-4-carboxamide]",< 500
2,"CN1CCC2(Cc3cccc(C(=O)NO)c3C2)C1=O (centres unmarked) [II-2, N-hydroxy-1′-methyl-2′-oxo-1,3-dihydrospiro[indene-2,3′-pyrrolidine]-4-carboxamide]",> 1000
3,"O=C(NO)c1cccc2c1C[C@@]1(CCN(Cc3ccc(Cl)c(C(F)(F)F)c3)C1=O)C2 [II-3, (R)-1′-(4-chloro-3-(trifluoromethyl)benzyl)-N-hydroxy-2′-oxo-1,3-dihydrospiro[indene-2,3′-pyrrolidine]-4-carboxamide]",< 500
4,"O=C(NO)c1cccc2c1CC1(CCN(Cc3ccc(C(F)(F)F)c(F)c3)C1=O)C2 (centres unmarked) [II-5, 1′-(3-fluoro-4-(trifluoromethyl)benzyl)-N-hydroxy-2′-oxo-1,3-dihydrospiro[indene-2,3′-pyrrolidine]-4-carboxamide]",< 500
5,"O=C(NO)c1cccc2c1CC1(CCN(Cc3ccc(C(F)(F)F)cc3)C1=O)C2 (centres unmarked) [II-6, N-hydroxy-2′-oxo-1′-(4-(trifluoromethyl)benzyl)-1,3-dihydrospiro[indene-2,3′-pyrrolidine]-4-carboxamide]",< 500
6,"O=C(NO)c1cccc2c1CC1(CCN(Cc3ccc(F)cc3)C1=O)C2 (centres unmarked) [II-7, 1′-(4-fluorobenzyl)-N-hydroxy-2′-oxo-1,3-dihydrospiro[indene-2,3′-pyrrolidine]-4-carboxamide]",500 to 1000
7,"CS(=O)(=O)c1ccc(CN2CCC3(Cc4cccc(C(=O)NO)c4C3)C2=O)cc1 (centres unmarked) [II-8, N-hydroxy-1′-(4-(methylsulfonyl)benzyl)-2′-oxo-1,3-dihydrospiro[indene-2,3′-pyrrolidine]-4-carboxamide]",> 1000
8,"O=C(NO)c1cccc2c1CC1(CCN(C3CC3)C1=O)C2 (centres unmarked) [II-9, 1′-cyclopropyl-N-hydroxy-2′-oxo-1,3-dihydrospiro[indene-2,3′-pyrrolidine]-4-carboxamide]",> 1000
9,"O=C(NO)c1cccc2c1CC1(CCN(CC3CCC3)C1=O)C2 (centres unmarked) [II-10, 1′-(cyclobutylmethyl)-N-hydroxy-2′-oxo-1,3-dihydrospiro[indene-2,3′-pyrrolidine]-4-carboxamide]",> 1000
10,"O=C(NO)c1cccc2c1CC1(CCN(c3ccc(C(F)(F)F)cc3)C1=O)C2 (centres unmarked) [II-11, N-hydroxy-2′-oxo-1′-(4-(trifluoromethyl)phenyl)-1,3-dihydrospiro[indene-2,3′-pyrrolidine]-4-carboxamide]",> 1000
11,"O=C(NO)c1cccc2c1CC1(CCN(c3cccc(C(F)(F)F)c3)C1=O)C2 (centres unmarked) [II-12, N-hydroxy-2′-oxo-1′-(3-(trifluoromethyl)phenyl)-1,3-dihydrospiro[indene-2,3′-pyrrolidine]-4-carboxamide]",500 to 1000
12,"O=C(NO)c1cccc2c1CC1(CCN(c3ccccc3C(F)(F)F)C1=O)C2 (centres unmarked) [II-13, N-hydroxy-2′-oxo-1′-(2-(trifluoromethyl)phenyl)-1,3-dihydrospiro[indene-2,3′-pyrrolidine]-4-carboxamide]",> 1000
13,"O=C(NO)c1cccc2c1CC1(CCN(CCCc3ccccc3)C1=O)C2 (centres unmarked) [II-15, N-hydroxy-2′-oxo-1′-(3-phenylpropyl)-1,3-dihydrospiro[indene-2,3′-pyrrolidine]-4-carboxamide]",> 1000
14,"O=C(NO)c1cccc2c1CC1(CCN(Cc3ccc(-c4ccccc4)cc3)C1=O)C2 (centres unmarked) [II-16, 1′-([1,1′-biphenyl]-4-ylmethyl)-N-hydroxy-2′-oxo-1,3-dihydrospiro[indene-2,3′-pyrrolidine]-4-carboxamide]",< 500
15,"O=C(NO)c1cccc2c1CC1(CCN(Cc3cccc(-c4ccccc4)c3)C1=O)C2 (centres unmarked) [II-18, 1′-([1,1′-biphenyl]-3-ylmethyl)-N-hydroxy-2′-oxo-1,3-dihydrospiro[indene-2,3′-pyrrolidine]-4-carboxamide]",< 500
16,"COc1ccc(CN2CCC3(Cc4cccc(C(=O)NO)c4C3)C2=O)cc1 (centres unmarked) [II-19, N-hydroxy-1′-(4-methoxybenzyl)-2′-oxo-1,3-dihydrospiro[indene-2,3′-pyrrolidine]-4-carboxamide]",> 1000
17,"O=C(NO)c1cccc2c1CC1(CCN(Cc3c(Cl)cccc3Cl)C1=O)C2 (centres unmarked) [II-21, 1′-(2,6-dichlorobenzyl)-N-hydroxy-2′-oxo-1,3-dihydrospiro[indene-2,3′-pyrrolidine]-4-carboxamide]",500 to 1000
18,"O=C(NO)c1cccc2c1CC1(CCN(Cc3cccnc3)C1=O)C2 (centres unmarked) [II-24, N-hydroxy-2′-oxo-1 ‘-(pyridin-3-ylmethyl)-1,3-dihydrospiro[indene-2,3’-pyrrolidine]-4-carboxamide]",> 1000
19,"O=C(NO)c1cccc2c1CC1(CCN(Cc3ccc(OC(F)(F)F)cc3)C1=O)C2 (centres unmarked) [II-27, N-hydroxy-2′-oxo-1′-(4-(trifluoromethoxy)benzyl)-1,3-dihydrospiro[indene-2,3′-pyrrolidine]-4-carboxamide]",< 500
20,"O=C(NO)c1cccc2c1CC1(CCN(Cc3cc(F)cc(F)c3)C1=O)C2 (centres unmarked) [II-28, 1′-(3,5-difluorobenzyl)-N-hydroxy-2′-oxo-1,3-dihydrospiro[indene-2,3′-pyrrolidine]-4-carboxamide]",> 1000
21,"O=C(NO)c1cccc2c1CC1(CCN(Cc3cccc(C(F)(F)F)c3)C1=O)C2 (centres unmarked) [II-31, N-hydroxy-2′-oxo-1′-(3-(trifluoromethyl)benzyl)-1,3-dihydrospiro[indene-2,3′-pyrrolidine]-4-carboxamide]",< 500
22,"O=C(NO)c1cccc2c1CC1(CCN(Cc3csc(-c4ccccc4)n3)C1=O)C2 (centres unmarked) [II-34, N-hydroxy-2′-oxo-1′-((2-phenylthiazol-4-yl)methyl)-1,3-dihydrospiro[indene-2,3′-pyrrolidine]-4-carboxamide]",> 1000
23,"O=C(NO)c1cccc2c1CC1(CCN(Cc3ccc(F)cc3F)C1=O)C2 (centres unmarked) [II-35, 1′-(2,4-difluorobenzyl)-N-hydroxy-2′-oxo-1,3-dihydrospiro[indene-2,3′-pyrrolidine]-4-carboxamide]",> 1000
